Legend:
dopamine D2 receptors = dopamine D2 receptors (Homo sapiens, UniProt P14416); assay type: binding; conditions: read-out: IC50, inhibition of the FRET signal by increasing concentrations of NAPS; Cos7 cells transfected with D2 receptors; NAPS(Lumi4-Tb) (8) 1 nM and NAPS(d1) (9) 5 nM
oxytocin receptor [1] = target: T1, oxytocin receptor (Homo sapiens, UniProt P30559); assay: Binding affinity of ligands for the oxytocin receptor
T1 sequence (P30559 1-389): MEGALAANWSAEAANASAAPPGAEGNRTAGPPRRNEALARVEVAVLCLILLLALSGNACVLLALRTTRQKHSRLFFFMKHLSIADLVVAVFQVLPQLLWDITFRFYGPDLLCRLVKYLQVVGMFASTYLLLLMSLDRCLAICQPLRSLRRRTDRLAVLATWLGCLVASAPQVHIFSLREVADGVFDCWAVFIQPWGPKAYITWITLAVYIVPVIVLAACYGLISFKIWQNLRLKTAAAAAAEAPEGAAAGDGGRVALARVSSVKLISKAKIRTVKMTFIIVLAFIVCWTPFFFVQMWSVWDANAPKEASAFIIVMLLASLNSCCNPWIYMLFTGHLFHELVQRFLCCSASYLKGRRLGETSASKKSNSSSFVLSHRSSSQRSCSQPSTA

oxytocin receptor [2] = target: T2, oxytocin receptor (Rattus norvegicus, UniProt P70536); assay type: binding; conditions: mammary gland patches; excess of oxytocin 1 μM
T2 sequence (P70536 1-388): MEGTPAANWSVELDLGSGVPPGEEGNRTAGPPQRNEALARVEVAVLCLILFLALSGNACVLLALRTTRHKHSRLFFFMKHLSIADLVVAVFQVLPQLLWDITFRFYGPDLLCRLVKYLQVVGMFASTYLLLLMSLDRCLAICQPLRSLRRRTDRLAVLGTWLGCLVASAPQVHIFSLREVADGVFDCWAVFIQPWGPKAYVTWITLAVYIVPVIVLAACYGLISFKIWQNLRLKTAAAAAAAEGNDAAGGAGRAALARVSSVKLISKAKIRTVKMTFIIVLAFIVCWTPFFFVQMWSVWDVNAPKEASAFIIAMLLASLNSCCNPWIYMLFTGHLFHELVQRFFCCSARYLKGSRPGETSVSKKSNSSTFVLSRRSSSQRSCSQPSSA

Sequence of dopamine D2 receptors (P14416 whole entry): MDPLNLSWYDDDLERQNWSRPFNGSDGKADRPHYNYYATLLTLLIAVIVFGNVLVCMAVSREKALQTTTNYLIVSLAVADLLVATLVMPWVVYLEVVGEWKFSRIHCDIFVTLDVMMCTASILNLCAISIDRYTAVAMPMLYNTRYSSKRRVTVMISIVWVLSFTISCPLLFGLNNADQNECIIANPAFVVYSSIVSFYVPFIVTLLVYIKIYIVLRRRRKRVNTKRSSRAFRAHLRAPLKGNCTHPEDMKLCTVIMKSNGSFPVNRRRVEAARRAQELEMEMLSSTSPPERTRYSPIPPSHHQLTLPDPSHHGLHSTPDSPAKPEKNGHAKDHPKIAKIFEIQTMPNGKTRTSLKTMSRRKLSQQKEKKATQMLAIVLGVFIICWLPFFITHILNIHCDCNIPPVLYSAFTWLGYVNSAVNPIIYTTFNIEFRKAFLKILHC

| Affinity for the oxytocin receptor (in words) (oxytocin receptor [1]) | Effect on the FRET signal between donor and acceptor antagonists (oxytocin receptor [2]) | Molecule | IC50 (dopamine D2 receptors) [nM] |
| --- | --- | --- | --- |
| high affinities |  | HO-[Thr[4],Orn[8](Alexa-647)]VT [compound 6] |  |
| high affinities |  | HO-[Thr[4],Orn[8](Eu-PBBP)]VT [compound 5] |  |

Further lines, the molecule ahead of its results:

| Molecule | Affinity for the oxytocin receptor (in words) (oxytocin receptor [1]) | Effect on the FRET signal between donor and acceptor antagonists (oxytocin receptor [2]) | IC50 (dopamine D2 receptors) [nM] |
| --- | --- | --- | --- |
| Nc1ccc(CCN2CN(c3ccccc3)C3(CCN(CCCC(=O)c4ccc(F)cc4)CC3)C2=O)cc1 [NAPS, N-(p-aminophenethyl)spiperone] |  |  | 1.9 |
| d(CH2)5[DTyr(Et)2,Ile4,Eda(Alexa-647)9]VP [compound 14] | poor affinity |  |  |
| glucagon-like peptide 1 [GLP1] | no affinity | not affected |  |

Source: publication PMC3506176 (Nature chemical biology, 2010)
